Where “and” joins values, the source holds several entries; their conditions need not be identical. Identical values can stand only once. Toxic doses and inconclusive results are not listed.
Test system: L1210 leukemia ip in BDF1 mice, survival T/C
Assay: NCI In Vivo Anticancer Drug Screen. Data for tumor model L1210 Leukemia (intraperitoneal) in B6D2F1 (BDF1) mice
Conditions: endpoint: mean survival time, higher = longer survival
How it was run: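 Read-out is survival time, reported as the treated-group measurement over the vehicle-control measurement.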

[1] = dose: 100.0 mg/kg/injection, schedule: Q04DX003 (ip), vehicle: saline with Tween-80
[2] = dose: 200.0 mg/kg/injection, schedule: Q04DX003 (ip), vehicle: saline with Tween-80
[3] = dose: 400.0 mg/kg/injection, schedule: Q04DX003 (ip), vehicle: saline with Tween-80
[4] = dose: 100.0 mg/kg/injection, schedule: Q01DX001 (ip), vehicle: saline
[5] = dose: 200.0 mg/kg/injection, schedule: Q01DX001 (ip), vehicle: saline
[6] = dose: 400.0 mg/kg/injection, schedule: Q01DX001 (ip), vehicle: saline
[7] = dose: 100.0 mg/kg/injection, schedule: Q04DX003 (ip), vehicle: Klucel (hydroxypropylcellulose) (HPC)
[8] = dose: 200.0 mg/kg/injection, schedule: Q04DX003 (ip), vehicle: Klucel (hydroxypropylcellulose) (HPC)

## CCC(CO)(CO)[N+](=O)[O-]
[1]
  T/C: 95 % of control
[2]
  T/C: 91 % of control
[3]
  T/C: 91 % of control

## O=C(NC(=S)Nc1ccc(Cl)cc1)c1ccccc1
dose: 25.0 mg/kg/injection, schedule: Q01DX009 (ip), vehicle: Klucel (hydroxypropylcellulose) (HPC)
  T/C: 95 % of control
dose: 50.0 mg/kg/injection, schedule: Q01DX009 (ip), vehicle: Klucel (hydroxypropylcellulose) (HPC)
  T/C: 93 % of control
dose: 100.0 mg/kg/injection, schedule: Q01DX009 (ip), vehicle: Klucel (hydroxypropylcellulose) (HPC)
  T/C: 93 % of control and 89 % of control

## Cc1cccc2cc3c(ccc4ccccc43)c[n+]12
dose: 2.0 mg/kg/injection, schedule: Q01DX015 (ip), vehicle: carboxymethylcellulose (CMC)
  T/C: 101 % of control
dose: 4.0 mg/kg/injection, schedule: Q01DX015 (ip), vehicle: carboxymethylcellulose (CMC)
  T/C: 108 % of control
dose: 5.0 mg/kg/injection, schedule: Q04DX003 (ip), vehicle: Klucel (hydroxypropylcellulose) (HPC)
  T/C: 106 % of control
dose: 6.25 mg/kg/injection, schedule: Q01DX009 (ip), vehicle: saline with Tween-80
  T/C: 98 % of control
dose: 6.25 mg/kg/injection, schedule: Q04DX003 (ip), vehicle: saline
  T/C: 93 % of control
dose: 8.0 mg/kg/injection, schedule: Q01DX015 (ip), vehicle: carboxymethylcellulose (CMC)
  T/C: 105 % of control
dose: 10.0 mg/kg/injection, schedule: Q04DX003 (ip), vehicle: Klucel (hydroxypropylcellulose) (HPC)
  T/C: 103 % of control
dose: 12.5 mg/kg/injection, schedule: Q01DX001 (ip), vehicle: saline
  T/C: 98 % of control
dose: 12.5 mg/kg/injection, schedule: Q01DX009 (ip), vehicle: saline with Tween-80
  T/C: 115 % of control
dose: 12.5 mg/kg/injection, schedule: Q04DX003 (ip), vehicle: saline
  T/C: 97 % of control
dose: 20.0 mg/kg/injection, schedule: Q04DX003 (ip), vehicle: Klucel (hydroxypropylcellulose) (HPC)
  T/C: 100 % of control
dose: 25.0 mg/kg/injection, schedule: Q01DX001 (ip), vehicle: saline
  T/C: 97 % of control
dose: 25.0 mg/kg/injection, schedule: Q04DX003 (ip), vehicle: saline
  T/C: 97 % of control
dose: 40.0 mg/kg/injection, schedule: Q04DX003 (ip), vehicle: Klucel (hydroxypropylcellulose) (HPC)
  T/C: 97 % of control
dose: 80.0 mg/kg/injection, schedule: Q04DX003 (ip), vehicle: Klucel (hydroxypropylcellulose) (HPC)
  T/C: 100 % of control

## NC(=O)CN1C(=O)C2C3CCC(C3)C2C1=O (centres undefined)
[1]
  T/C: 107 % of control
[2]
  T/C: 107 % of control
[3]
  T/C: 107 % of control

## CNc1ccn(C2CCCO2)c(=O)n1 (centres undefined)
[4]
  T/C: 104 % of control
[5]
  T/C: 104 % of control
[6]
  T/C: 104 % of control

## [O-][n+]1onc(-c2ccccc2)c1-c1ccccc1
[7]
  T/C: 105 % of control
[8]
  T/C: 108 % of control
dose: 400.0 mg/kg/injection, schedule: Q04DX003 (ip), vehicle: Klucel (hydroxypropylcellulose) (HPC)
  T/C: 108 % of control

## COc1ccc(C(=O)CCCCl)c(OC)c1
dose: 100.0 mg/kg/injection, schedule: Q01DX009 (ip), vehicle: saline with Tween-80
  T/C: 95 % of control
[1]
  T/C: 89 % of control
dose: 200.0 mg/kg/injection, schedule: Q01DX009 (ip), vehicle: saline with Tween-80
  T/C: 93 % of control
[2]
  T/C: 96 % of control
dose: 400.0 mg/kg/injection, schedule: Q01DX009 (ip), vehicle: saline with Tween-80
  T/C: 93 % of control
[3]
  T/C: 91 % of control

## Nc1nnnn1-c1ccc2ccccc2c1
[1]
  T/C: 101 % of control
[2]
  T/C: 97 % of control
[3]
  T/C: 101 % of control

## NC(=S)N/N=C/c1cc(Cl)cc(Cl)c1
dose: 100.0 mg/kg/injection, schedule: Q01DX001 (ip), vehicle: other
  T/C: 96 % of control
dose: 200.0 mg/kg/injection, schedule: Q01DX001 (ip), vehicle: other
  T/C: 102 % of control
dose: 400.0 mg/kg/injection, schedule: Q01DX001 (ip), vehicle: other
  T/C: 106 % of control

## O=C(Cl)Oc1cccc2ccccc12
dose: 50.0 mg/kg/injection, schedule: Q01DX001 (ip), vehicle: saline
  T/C: 108 % of control
[4]
  T/C: 113 % of control
[5]
  T/C: 104 % of control
[6]
  T/C: 98 % of control

## C=CCC1(CC)C(=O)NC(=O)NC1=O
dose: 50.0 mg/kg/injection, schedule: Q01DX009 (ip), vehicle: saline sonified
  T/C: 102 % of control
dose: 100.0 mg/kg/injection, schedule: Q01DX009 (ip), vehicle: saline sonified
  T/C: 110 % of control
[7]
  T/C: 94 % of control
dose: 200.0 mg/kg/injection, schedule: Q01DX009 (ip), vehicle: saline sonified
  T/C: 108 % of control
[8]
  T/C: 94 % of control

## CCC(=O)N/N=C(\N)N[N+](=O)[O-]
dose: 87.5 mg/kg/injection, schedule: Q04DX003 (ip), vehicle: Klucel (hydroxypropylcellulose) (HPC)
  T/C: 102 % of control
dose: 175.0 mg/kg/injection, schedule: Q04DX003 (ip), vehicle: Klucel (hydroxypropylcellulose) (HPC)
  T/C: 105 % of control
dose: 350.0 mg/kg/injection, schedule: Q04DX003 (ip), vehicle: Klucel (hydroxypropylcellulose) (HPC)
  T/C: 103 % of control

## C=CCCCCCCCCCNc1cc2c3c(c1)CCCN3CCC2
dose: 0.19 mg/kg/injection, schedule: Q01DX003 (ip), vehicle: saline
  T/C: 90 % of control
dose: 0.19 mg/kg/injection, schedule: Q01DX009 (ip), vehicle: saline
  T/C: 108 % of control
dose: 0.39 mg/kg/injection, schedule: Q01DX003 (ip), vehicle: saline
  T/C: 98 % of control
dose: 0.39 mg/kg/injection, schedule: Q01DX009 (ip), vehicle: saline
  T/C: 98 % of control
dose: 0.78 mg/kg/injection, schedule: Q01DX003 (ip), vehicle: saline
  T/C: 101 % of control

## CC(/C=N/NC(N)=S)=N\N=C(N)N
dose: 15.0 mg/kg/injection, schedule: Q01DX Z (ip), vehicle: carboxymethylcellulose (CMC)
  T/C: 98 % of control
dose: 30.0 mg/kg/injection, schedule: Q01DX Z (ip), vehicle: carboxymethylcellulose (CMC)
  T/C: 101 % of control
dose: 60.0 mg/kg/injection, schedule: Q01DX Z (ip), vehicle: carboxymethylcellulose (CMC)
  T/C: 98 % of control
dose: 120.0 mg/kg/injection, schedule: Q01DX Z (ip), vehicle: carboxymethylcellulose (CMC)
  T/C: 98 % of control

## NNc1ncnc2nc[nH]c12
dose: 12.0 mg/kg/injection, schedule: Q01DX015 (ip), vehicle: saline
  T/C: 93 % of control
dose: 25.0 mg/kg/injection, schedule: Q01DX015 (ip), vehicle: saline
  T/C: 101 % of control
dose: 50.0 mg/kg/injection, schedule: Q01DX015 (ip), vehicle: saline
  T/C: 104 % of control
dose: 75.0 mg/kg/injection, schedule: Q01DX001 (ip), vehicle: saline
  T/C: 105 % of control
dose: 100.0 mg/kg/injection, schedule: Q01DX015 (ip), vehicle: saline
  T/C: 116 % of control
dose: 150.0 mg/kg/injection, schedule: Q01DX001 (ip), vehicle: saline
  T/C: 102 % of control
dose: 300.0 mg/kg/injection, schedule: Q01DX001 (ip), vehicle: saline
  T/C: 114 % of control

## COc1cc2c(c(OC)c1OC)-c1ccc(SC)c(=O)cc1[C@@H](NC1OC(CO)C(O)C(O)C1O)CC2 (some centres undefined)
dose: 25.0 mg/kg/injection, schedule: Q01DX005 (ip), vehicle: saline
  T/C: 102 % of control
dose: 50.0 mg/kg/injection, schedule: Q01DX009 (ip), vehicle: saline
  T/C: 150 % of control
dose: 75.0 mg/kg/injection, schedule: Q01DX009 (ip), vehicle: saline
  T/C: 95 % of control
dose: 150.0 mg/kg/injection, schedule: Q01DX005 (ip), vehicle: saline
  T/C: 120 % of control
